Data on two molecules can be found in ChEMBL document CHEMBL4507291 (2021).

Structures are written as SMILES. pKi: −log10 of the molar value.

Assay [1] has as its target Sigma intracellular receptor 2 (Homo sapiens, UniProt Q5BJF2). In words: GPCRScan assay: inhibition of Sigma 2. Also on record: radioligand conc. used [nm] 5.0, parental cells HEKT.
Assay [2] deals with Tyrosine-protein kinase ABL1 (Homo sapiens) (UniProt P00519).
The target in assay [3] is Calcium/calmodulin-dependent protein kinase type 1G (Homo sapiens) (UniProt Q96NX5).
Assay [4] concerns the target Calcium/calmodulin-dependent protein kinase type II subunit gamma (Homo sapiens) (UniProt Q13555).
Assay [5] concerns the target Dual specificity tyrosine-phosphorylation-regulated kinase 2 (Homo sapiens) (UniProt Q92630).
The target in assay [6] is LIM domain kinase 2 (Homo sapiens) (UniProt P53671).
The target in assay [7] is MAP/microtubule affinity-regulating kinase 3 (Homo sapiens) (UniProt P27448).
In assay [8] the target is T1, Serine/threonine-protein kinase NLK (Homo sapiens) (UniProt Q9UBE8).
T1 sequence (whole entry): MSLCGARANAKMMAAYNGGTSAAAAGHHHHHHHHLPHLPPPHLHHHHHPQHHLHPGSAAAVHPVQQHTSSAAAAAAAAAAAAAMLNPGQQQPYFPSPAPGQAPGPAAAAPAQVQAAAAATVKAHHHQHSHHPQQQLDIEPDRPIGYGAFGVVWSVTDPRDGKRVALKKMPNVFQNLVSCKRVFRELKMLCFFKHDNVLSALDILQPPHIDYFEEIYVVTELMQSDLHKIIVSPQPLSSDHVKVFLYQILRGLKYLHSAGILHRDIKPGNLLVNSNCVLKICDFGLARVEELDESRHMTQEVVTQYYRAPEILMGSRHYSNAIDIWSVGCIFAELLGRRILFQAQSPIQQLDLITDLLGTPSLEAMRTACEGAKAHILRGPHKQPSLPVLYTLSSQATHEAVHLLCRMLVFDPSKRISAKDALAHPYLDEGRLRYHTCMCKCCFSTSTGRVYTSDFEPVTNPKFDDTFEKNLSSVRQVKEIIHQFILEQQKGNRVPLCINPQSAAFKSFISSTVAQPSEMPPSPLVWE

For assay [9], the target named is Receptor-interacting serine/threonine-protein kinase 1 (Homo sapiens) (UniProt Q13546).
In assay [10] the target is Ribosomal protein S6 kinase alpha-4 (Homo sapiens) (UniProt O75676).
For assay [11], the target named is Tyrosine-protein kinase receptor Tie-1 (Homo sapiens) (UniProt P35590).
The target of assay [12] is T2, Tyrosine-protein kinase TXK (Homo sapiens) (UniProt P42681).
T2 sequence (whole entry): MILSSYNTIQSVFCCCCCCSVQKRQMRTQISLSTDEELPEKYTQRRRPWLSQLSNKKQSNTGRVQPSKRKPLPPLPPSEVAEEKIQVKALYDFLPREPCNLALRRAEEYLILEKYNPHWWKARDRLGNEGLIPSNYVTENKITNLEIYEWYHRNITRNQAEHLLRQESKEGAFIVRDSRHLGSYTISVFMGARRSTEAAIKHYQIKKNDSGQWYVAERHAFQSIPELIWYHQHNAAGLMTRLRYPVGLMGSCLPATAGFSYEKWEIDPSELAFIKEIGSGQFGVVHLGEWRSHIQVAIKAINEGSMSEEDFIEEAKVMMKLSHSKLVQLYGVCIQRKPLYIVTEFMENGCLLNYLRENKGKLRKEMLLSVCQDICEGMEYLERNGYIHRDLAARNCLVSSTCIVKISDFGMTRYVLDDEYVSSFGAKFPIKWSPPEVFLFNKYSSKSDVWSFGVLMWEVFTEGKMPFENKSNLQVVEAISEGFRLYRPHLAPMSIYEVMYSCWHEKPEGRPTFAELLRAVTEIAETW

Assay [13] addresses T3, Tyrosine-protein kinase receptor TYRO3 (Homo sapiens) (UniProt Q06418).
T3 sequence (whole entry): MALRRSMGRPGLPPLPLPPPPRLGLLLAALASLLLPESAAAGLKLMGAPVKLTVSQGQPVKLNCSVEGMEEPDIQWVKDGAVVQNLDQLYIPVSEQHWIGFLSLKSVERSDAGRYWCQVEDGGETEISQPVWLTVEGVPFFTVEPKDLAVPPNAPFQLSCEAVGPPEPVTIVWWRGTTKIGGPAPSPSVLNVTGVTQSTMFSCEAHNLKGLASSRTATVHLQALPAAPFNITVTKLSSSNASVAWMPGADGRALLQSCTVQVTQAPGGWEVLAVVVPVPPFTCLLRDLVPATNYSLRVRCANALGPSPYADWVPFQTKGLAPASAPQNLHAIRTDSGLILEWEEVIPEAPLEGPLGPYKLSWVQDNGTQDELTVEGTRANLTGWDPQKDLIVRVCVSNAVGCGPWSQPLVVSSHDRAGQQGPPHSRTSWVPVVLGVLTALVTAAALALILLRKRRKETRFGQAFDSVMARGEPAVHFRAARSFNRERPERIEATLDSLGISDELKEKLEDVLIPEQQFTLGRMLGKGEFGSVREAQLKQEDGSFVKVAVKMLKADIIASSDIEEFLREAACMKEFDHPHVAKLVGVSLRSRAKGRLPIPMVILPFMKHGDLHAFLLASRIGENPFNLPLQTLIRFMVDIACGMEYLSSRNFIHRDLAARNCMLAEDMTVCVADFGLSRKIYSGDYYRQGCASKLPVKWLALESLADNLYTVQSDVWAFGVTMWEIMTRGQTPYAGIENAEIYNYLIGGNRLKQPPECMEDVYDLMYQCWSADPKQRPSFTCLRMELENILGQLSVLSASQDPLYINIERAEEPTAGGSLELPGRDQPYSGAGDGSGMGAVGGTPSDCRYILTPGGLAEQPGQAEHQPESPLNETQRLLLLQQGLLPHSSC

For assay [14], the target named is Serine/threonine-protein kinase WNK3 (Homo sapiens) (UniProt Q9BYP7).
The species named for assay [15] is Rattus norvegicus. The following applies: Compound concentration 10.0 uM.
The mark [16] stands for this setting: Compound concentration 100.0 nM.
Setting [17] is: Compound concentration 1000.0 nM.

Tyrosine-protein kinase ABL1 (Homo sapiens), sequence (P00519 whole entry): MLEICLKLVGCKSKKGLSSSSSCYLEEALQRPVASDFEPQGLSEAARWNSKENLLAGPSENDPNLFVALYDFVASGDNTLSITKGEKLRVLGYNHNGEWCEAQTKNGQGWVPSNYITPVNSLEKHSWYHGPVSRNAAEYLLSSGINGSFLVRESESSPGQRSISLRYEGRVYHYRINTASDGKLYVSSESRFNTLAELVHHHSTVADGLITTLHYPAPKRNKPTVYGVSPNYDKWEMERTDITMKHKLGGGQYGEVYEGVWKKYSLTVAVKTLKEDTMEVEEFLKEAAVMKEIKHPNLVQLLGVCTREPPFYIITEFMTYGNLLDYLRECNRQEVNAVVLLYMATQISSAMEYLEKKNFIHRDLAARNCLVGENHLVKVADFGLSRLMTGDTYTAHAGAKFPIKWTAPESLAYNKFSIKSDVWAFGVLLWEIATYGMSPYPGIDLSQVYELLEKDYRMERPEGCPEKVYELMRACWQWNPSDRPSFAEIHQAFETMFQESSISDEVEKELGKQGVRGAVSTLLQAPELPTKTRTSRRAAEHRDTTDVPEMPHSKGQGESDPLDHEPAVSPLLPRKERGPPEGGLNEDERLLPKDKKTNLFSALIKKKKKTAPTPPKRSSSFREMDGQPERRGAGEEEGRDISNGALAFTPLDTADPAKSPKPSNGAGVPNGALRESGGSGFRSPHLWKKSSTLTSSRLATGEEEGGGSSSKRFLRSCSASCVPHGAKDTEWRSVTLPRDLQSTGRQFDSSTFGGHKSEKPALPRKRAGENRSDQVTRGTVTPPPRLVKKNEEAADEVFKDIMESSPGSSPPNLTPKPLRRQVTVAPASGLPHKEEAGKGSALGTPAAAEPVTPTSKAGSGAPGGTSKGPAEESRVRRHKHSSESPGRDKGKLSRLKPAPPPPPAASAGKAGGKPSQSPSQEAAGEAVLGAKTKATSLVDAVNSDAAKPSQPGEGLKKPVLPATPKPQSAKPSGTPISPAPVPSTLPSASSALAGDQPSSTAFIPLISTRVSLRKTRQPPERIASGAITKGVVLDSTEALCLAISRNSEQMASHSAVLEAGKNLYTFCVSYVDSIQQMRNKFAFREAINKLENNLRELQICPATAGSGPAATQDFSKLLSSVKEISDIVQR
Calcium/calmodulin-dependent protein kinase type II subunit gamma (Homo sapiens), sequence (Q13555 whole entry): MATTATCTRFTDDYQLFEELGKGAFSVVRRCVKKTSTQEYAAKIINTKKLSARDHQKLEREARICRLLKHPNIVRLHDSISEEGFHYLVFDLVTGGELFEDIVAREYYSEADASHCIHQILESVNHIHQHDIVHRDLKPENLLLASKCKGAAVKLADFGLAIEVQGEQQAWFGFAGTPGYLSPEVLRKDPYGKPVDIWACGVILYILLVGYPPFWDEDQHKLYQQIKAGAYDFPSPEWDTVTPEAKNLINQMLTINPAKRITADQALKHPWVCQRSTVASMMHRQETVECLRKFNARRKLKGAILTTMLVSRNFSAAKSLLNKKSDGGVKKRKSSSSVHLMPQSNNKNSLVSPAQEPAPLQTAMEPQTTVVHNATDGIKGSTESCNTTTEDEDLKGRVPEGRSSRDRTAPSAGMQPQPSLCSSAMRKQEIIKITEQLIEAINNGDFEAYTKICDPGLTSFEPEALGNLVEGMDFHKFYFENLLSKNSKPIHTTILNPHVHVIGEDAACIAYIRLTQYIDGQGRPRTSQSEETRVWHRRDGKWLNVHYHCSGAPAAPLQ
Calcium/calmodulin-dependent protein kinase type 1G (Homo sapiens), sequence (Q96NX5 whole entry): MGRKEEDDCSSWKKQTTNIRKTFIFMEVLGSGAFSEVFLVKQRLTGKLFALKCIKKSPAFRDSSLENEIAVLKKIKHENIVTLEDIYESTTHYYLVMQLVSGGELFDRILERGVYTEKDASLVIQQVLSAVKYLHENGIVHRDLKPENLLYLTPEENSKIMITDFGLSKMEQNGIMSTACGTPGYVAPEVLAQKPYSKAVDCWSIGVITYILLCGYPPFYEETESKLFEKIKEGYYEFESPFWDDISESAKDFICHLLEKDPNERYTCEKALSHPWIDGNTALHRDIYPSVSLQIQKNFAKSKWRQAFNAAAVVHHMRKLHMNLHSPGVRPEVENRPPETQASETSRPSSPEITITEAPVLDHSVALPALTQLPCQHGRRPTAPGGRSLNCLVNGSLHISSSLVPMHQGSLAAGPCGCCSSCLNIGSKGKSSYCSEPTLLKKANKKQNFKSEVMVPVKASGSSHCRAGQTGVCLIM
Tyrosine-protein kinase receptor Tie-1 (Homo sapiens), sequence (P35590 whole entry): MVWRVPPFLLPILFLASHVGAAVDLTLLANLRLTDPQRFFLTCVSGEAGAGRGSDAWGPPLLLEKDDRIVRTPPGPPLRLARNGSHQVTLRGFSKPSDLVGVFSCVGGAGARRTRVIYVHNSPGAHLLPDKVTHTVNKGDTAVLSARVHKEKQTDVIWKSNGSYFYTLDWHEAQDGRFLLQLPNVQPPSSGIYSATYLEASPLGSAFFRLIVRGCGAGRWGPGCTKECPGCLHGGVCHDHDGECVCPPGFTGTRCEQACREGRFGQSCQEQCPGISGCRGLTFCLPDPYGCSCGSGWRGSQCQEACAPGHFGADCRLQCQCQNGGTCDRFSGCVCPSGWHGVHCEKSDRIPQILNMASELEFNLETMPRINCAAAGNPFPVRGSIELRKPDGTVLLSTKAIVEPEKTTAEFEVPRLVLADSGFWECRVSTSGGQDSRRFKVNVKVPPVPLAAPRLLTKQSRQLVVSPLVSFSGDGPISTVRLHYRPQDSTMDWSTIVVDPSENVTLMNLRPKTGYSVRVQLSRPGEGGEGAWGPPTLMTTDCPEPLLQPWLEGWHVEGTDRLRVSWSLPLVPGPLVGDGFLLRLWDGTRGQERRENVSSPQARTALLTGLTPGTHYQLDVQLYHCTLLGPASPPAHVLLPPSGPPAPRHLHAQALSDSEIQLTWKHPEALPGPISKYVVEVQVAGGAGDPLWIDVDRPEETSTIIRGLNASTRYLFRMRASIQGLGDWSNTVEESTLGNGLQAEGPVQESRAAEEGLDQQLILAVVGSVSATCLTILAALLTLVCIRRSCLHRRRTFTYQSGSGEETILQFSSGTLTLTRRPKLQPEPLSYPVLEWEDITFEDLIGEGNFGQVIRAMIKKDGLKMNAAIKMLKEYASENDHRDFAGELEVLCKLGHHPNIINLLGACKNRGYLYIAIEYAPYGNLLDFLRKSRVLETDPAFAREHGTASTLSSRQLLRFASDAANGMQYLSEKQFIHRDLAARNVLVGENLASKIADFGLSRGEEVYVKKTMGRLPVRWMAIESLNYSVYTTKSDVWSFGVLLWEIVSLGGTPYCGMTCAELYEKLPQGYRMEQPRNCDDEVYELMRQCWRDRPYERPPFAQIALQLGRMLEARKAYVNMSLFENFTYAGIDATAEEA
Receptor-interacting serine/threonine-protein kinase 1 (Homo sapiens), sequence (Q13546 whole entry): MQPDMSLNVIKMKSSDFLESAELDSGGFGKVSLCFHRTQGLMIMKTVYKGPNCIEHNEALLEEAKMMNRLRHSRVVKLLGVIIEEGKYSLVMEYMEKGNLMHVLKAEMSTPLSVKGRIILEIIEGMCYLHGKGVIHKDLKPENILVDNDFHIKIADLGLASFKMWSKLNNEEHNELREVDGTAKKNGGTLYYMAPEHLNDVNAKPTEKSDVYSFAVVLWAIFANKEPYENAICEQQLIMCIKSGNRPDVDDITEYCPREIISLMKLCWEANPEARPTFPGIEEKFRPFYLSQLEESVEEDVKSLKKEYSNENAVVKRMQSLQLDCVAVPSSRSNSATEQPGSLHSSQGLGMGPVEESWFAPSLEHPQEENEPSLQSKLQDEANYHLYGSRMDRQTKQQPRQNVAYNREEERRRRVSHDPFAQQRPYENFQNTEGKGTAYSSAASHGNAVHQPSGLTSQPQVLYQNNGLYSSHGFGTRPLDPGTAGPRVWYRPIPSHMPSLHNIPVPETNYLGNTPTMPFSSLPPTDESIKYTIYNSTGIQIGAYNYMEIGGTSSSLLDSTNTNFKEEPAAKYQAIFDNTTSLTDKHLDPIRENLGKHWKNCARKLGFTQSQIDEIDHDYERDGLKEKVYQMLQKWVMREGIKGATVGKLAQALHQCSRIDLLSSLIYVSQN
Ribosomal protein S6 kinase alpha-4 (Homo sapiens), sequence (O75676 whole entry, looked up): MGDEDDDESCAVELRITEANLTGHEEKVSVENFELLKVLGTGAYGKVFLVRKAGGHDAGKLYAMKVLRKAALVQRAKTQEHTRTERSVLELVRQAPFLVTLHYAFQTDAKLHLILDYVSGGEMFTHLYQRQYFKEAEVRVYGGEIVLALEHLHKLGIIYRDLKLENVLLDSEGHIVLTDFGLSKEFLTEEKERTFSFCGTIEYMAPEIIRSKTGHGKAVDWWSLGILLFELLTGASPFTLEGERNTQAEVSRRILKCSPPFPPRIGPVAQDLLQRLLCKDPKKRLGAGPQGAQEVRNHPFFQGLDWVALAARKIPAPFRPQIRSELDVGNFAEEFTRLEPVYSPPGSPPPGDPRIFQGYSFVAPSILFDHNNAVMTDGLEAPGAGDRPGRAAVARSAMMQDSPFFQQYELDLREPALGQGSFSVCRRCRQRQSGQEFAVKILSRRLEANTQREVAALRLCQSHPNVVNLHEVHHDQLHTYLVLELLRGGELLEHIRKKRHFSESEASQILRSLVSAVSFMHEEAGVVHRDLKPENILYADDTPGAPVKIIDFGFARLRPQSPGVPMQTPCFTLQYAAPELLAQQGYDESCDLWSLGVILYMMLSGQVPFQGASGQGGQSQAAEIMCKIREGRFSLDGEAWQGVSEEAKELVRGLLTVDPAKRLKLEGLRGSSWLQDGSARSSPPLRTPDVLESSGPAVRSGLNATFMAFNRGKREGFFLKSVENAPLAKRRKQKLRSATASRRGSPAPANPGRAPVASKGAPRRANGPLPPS
Sigma intracellular receptor 2, sequence (Q5BJF2 whole entry): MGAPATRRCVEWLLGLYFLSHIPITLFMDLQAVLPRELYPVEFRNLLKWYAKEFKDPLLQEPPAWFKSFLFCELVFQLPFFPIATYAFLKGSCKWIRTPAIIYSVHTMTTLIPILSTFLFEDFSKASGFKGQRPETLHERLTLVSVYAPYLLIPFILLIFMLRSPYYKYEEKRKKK

`C[C@@H]1CN(c2cc(-c3n[nH]c4ccc(OC5(C)CC5)cc34)ncn2)C[C@H](C)O1` [MLi-2]: the negative-log Ki (pKi) in assay [1] is 5.34. Moreover, the residual activity is 87% in assay [2] (setting [16]); 91% in assay [3] (setting [16]); 100% in [4] (setting [16]); 98% in assay [5] (setting [16]); 91% in [6] (setting [16]); 73% in assay [7] (setting [16]). Also, the residual activity is 100% in [8] (setting [16]); 100% in assay [9] (setting [16]); 100% in [10] (setting [16]); 67% in assay [11] (setting [16]); 80% in [12] (setting [16]); 100% in [13] (setting [16]). Moreover, the residual activity in [14] (setting [16]) is 73%. Besides, the inhibition in assay [15] was 5.96%.
Take `C[C@@H]1CN(c2cc(-c3nn(C)c4ccc(OC5(C)CC5)cc34)ncn2)C[C@H](C)O1` [MLi-2-NC]: the pKi in assay [1] is 5.97. Besides, the residual activity in assay [2] (setting [17]) is 85%; in assay [3] (setting [17]), 82%; in assay [4] (setting [17]), 90%; in [5] (setting [17]) it was 83%; in assay [6] (setting [17]) it was 92%; in [7] (setting [17]) it was 100%. For the same molecule, the residual activity in assay [8] (setting [17]) was 96%; in assay [9] (setting [17]), 98%; in [10] (setting [17]), 100%; in assay [11] (setting [17]), 92%; in assay [12] (setting [17]), 100%; in assay [13] (setting [17]), 93%. For the same molecule, in [14] (setting [17]), the residual activity is 91%. Moreover, the inhibition in assay [15] is 46.1%.
